Measured values as given in patent publication US20230148005A1, “MACROCYCLIC COMPOUNDS AND USES THEREOF” (THESEUS PHARMACEUTICALS, INC., priority 2020, published 2023).

What was measured:
Ba/F3 EGFR-Del19/C797S = Ba/F3 EGFR-Del19/C797S (Homo sapiens, UniProt P00533, C797S, cells depend on it, form not given); assay: Ba/F3 viability assay (CellTiter-Glo), DC; assay type: cell-based; details: anti-proliferation, read-out: BaF3 DC IC50
From the text: (§1) Inhibition of cell proliferation can be studied using Ba/F3 viability assays, including the Promega CellTiter-Glo cell viability assay. This assay can be used to study the effect of compounds described herein in the following assays: (1) Ba/F3 Parental; (2) Ba/F3 EGFR-Del19/T790M; (3); Ba/F3 EGFR-Del19/C797S; and (4) Ba/F3 EGFR-Del19/T790M/C797S.

[1] = molecular target: Ba/F3 EGFR-Del19/T790M/C797S (Homo sapiens, UniProt P00533, T790M/C797S, cells depend on it, form not given); assay: Ba/F3 viability assay (CellTiter-Glo), DTC; assay type: cell-based; details: anti-proliferation, read-out: BaF3 DTC IC50
From the text: as §1

EGFR^L58R/T790M = EGFR^L58R/T790M (Homo sapiens, UniProt P00533, L858R/T790M); assay: in vitro kinase assay (HTRF KinEASE-TK kit), LT; assay type: biochemical; details: kinase inhibition
From the text: (§2) Assays using an in vitro kinase assay kit (HTRF KinEASE-TK kit) can be used to study the inhibitory activity of compounds described herein with respect to EGFR mutants such as EGFR^L858R, EGFR^L58R/T790M, and EGFR^L858R/T790M/C^797S.

EGFR^L858R/T790M/C^797S = EGFR^L858R/T790M/C^797S (Homo sapiens, UniProt P00533, C797S/L858R/T790M); assay: in vitro kinase assay (HTRF KinEASE-TK kit), LTC; assay type: biochemical; details: kinase inhibition
From the text: as §2

Ba/F3 Parental = assay: Ba/F3 viability assay (CellTiter-Glo), parental; assay type: cell-based; details: Mus musculus, BaF3, anti-proliferation
From the text: as §1

Ba/F3 EGFR-Del19/T790M = Ba/F3 EGFR-Del19/T790M (Homo sapiens, UniProt P00533, T790M, cells depend on it, form not given); assay: Ba/F3 viability assay (CellTiter-Glo), DT; assay type: cell-based; details: anti-proliferation, read-out: BaF3 DT IC50
From the text: as §1

EGFR^L858R = EGFR^L858R (Homo sapiens, UniProt P00533, L858R); assay: in vitro kinase assay (HTRF KinEASE-TK kit), L; assay type: biochemical; details: kinase inhibition
From the text: as §2

Chain of Ba/F3 EGFR-Del19/T790M/C797S (P00533 with tags, fused parts or gaps DEL746-750/T790M/C797S, form open): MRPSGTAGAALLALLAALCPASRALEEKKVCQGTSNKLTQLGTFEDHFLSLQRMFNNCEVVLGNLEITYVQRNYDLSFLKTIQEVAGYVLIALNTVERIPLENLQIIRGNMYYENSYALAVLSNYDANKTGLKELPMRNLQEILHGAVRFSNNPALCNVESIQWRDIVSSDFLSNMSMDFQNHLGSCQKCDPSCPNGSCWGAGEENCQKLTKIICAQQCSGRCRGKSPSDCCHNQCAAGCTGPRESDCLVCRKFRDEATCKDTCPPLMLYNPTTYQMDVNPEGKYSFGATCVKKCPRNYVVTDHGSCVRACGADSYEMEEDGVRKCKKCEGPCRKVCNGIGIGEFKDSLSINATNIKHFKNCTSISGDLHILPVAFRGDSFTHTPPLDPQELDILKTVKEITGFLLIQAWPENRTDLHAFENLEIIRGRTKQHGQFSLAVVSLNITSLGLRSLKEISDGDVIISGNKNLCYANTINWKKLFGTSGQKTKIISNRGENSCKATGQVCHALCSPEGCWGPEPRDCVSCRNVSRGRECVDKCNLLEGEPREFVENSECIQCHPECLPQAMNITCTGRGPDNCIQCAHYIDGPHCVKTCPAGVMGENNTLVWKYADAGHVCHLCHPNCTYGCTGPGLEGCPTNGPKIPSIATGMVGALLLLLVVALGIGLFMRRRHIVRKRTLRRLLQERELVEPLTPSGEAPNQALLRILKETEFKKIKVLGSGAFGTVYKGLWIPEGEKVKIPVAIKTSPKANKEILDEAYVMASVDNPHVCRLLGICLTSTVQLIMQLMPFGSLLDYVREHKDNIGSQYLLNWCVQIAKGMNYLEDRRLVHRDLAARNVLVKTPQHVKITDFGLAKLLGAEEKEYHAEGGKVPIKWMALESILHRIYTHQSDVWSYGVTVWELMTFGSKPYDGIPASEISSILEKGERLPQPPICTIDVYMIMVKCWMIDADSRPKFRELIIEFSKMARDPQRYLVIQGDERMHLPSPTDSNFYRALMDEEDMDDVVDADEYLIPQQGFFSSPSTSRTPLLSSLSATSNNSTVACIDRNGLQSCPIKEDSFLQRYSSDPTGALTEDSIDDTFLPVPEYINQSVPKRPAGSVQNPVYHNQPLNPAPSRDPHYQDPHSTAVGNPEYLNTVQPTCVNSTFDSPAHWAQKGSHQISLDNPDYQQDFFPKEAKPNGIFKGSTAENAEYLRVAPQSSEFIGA
Chain of EGFR^L58R/T790M (P00533 25-1210 T790M/L858R): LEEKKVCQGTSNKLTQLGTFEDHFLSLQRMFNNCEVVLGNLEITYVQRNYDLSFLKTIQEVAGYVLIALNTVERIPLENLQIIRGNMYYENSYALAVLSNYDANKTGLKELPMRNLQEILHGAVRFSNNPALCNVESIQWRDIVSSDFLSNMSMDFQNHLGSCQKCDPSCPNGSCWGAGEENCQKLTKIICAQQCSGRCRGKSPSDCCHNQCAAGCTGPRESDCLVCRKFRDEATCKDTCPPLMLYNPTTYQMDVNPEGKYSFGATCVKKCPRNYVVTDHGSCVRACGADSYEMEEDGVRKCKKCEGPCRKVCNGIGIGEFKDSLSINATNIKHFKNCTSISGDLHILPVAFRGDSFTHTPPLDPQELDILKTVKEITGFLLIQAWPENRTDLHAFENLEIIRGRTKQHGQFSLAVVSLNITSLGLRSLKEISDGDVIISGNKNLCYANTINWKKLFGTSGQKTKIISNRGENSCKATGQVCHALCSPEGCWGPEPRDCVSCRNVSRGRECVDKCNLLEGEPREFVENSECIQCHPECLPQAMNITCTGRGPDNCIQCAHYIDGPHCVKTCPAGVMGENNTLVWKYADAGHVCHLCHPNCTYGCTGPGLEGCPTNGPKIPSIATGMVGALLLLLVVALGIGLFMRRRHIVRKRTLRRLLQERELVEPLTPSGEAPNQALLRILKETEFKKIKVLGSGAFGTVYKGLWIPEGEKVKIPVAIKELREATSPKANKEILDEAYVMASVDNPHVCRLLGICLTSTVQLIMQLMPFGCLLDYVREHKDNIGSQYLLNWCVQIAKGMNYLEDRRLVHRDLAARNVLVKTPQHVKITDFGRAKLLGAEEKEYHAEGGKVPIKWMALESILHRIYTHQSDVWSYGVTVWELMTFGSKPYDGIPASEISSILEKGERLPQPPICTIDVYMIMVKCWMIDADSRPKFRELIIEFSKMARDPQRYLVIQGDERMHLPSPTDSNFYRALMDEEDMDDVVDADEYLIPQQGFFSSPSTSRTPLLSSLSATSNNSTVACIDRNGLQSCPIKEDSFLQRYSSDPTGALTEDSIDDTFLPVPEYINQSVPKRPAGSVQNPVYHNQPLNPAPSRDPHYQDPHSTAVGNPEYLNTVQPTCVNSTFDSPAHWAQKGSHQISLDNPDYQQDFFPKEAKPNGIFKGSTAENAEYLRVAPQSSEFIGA
Chain of EGFR^L858R (P00533 25-1210 L858R): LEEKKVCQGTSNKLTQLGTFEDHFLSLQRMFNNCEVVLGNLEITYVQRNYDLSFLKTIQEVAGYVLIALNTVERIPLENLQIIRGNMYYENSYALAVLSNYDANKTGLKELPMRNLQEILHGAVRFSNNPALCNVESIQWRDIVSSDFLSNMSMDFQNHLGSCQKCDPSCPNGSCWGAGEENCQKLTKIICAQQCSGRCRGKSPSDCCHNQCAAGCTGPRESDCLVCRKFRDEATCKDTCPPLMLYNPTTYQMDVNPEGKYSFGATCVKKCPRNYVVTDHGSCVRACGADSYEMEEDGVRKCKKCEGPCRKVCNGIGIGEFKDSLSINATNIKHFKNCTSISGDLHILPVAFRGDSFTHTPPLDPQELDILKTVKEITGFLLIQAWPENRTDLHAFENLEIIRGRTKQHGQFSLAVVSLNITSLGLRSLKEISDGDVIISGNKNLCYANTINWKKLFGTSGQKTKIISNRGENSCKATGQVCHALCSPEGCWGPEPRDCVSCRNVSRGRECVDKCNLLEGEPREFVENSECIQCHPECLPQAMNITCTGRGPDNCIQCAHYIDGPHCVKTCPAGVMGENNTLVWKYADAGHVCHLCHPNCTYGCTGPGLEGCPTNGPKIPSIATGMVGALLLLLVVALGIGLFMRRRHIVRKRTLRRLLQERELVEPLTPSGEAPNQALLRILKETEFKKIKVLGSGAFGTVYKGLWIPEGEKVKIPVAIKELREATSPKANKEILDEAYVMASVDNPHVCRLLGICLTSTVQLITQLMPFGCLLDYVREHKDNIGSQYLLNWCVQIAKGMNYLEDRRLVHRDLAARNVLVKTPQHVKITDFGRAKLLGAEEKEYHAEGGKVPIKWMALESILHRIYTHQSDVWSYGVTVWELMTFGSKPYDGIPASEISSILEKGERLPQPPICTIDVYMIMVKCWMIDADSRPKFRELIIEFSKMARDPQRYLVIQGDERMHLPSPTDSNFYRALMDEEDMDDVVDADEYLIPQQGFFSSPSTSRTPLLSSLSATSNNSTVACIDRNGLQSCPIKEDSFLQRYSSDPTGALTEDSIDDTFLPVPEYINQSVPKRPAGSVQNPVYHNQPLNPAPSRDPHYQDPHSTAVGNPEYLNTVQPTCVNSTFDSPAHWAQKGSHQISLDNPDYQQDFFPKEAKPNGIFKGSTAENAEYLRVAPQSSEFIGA
Chain of Ba/F3 EGFR-Del19/C797S (P00533 with tags, fused parts or gaps DEL746-750/C797S, form open): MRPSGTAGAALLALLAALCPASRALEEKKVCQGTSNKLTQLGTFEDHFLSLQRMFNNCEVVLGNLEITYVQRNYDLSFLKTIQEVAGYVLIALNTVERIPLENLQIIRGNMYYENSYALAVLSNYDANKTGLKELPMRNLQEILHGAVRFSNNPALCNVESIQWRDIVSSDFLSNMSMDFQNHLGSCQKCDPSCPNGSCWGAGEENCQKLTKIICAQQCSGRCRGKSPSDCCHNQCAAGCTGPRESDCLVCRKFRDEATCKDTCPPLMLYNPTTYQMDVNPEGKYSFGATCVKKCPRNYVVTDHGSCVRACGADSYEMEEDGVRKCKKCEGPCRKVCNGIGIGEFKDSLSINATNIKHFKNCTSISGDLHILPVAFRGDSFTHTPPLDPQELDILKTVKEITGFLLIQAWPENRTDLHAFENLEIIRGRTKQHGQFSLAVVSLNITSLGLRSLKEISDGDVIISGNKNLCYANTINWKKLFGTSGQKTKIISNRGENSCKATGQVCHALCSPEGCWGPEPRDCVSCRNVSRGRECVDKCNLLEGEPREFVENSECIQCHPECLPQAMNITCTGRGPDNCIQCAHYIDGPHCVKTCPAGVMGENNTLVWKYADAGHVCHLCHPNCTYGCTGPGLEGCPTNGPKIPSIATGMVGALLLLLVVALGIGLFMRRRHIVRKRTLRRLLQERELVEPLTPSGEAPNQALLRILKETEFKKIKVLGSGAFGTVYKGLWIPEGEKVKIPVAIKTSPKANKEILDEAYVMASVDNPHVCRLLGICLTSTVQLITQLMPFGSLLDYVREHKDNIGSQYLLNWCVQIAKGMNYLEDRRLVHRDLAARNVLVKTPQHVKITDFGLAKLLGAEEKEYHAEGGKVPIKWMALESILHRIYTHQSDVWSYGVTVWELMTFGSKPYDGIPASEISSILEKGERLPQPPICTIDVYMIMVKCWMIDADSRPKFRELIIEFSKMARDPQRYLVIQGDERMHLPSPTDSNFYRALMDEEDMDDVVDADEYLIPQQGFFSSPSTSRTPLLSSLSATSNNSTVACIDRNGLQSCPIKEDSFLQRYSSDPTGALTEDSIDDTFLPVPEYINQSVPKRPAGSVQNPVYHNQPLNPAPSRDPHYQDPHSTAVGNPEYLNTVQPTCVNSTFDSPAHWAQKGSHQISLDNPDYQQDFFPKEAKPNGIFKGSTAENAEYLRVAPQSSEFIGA

SMILES	GI50 (Ba/F3 EGFR-Del19/C797S)	GI50 [1]	IC50 (EGFR^L58R/T790M)	IC50 (EGFR^L858R/T790M/C^797S)	IC50 (Ba/F3 Parental)	GI50 (Ba/F3 EGFR-Del19/T790M)	IC50 (EGFR^L858R)
CC1CCOc2c(cnn2C)-c2nccc(n2)Nc2cc3c(cn2)c(-c2ccc(CN4CCN(C)CC4)o2)nn31 (centres unmarked) [(63), 11,16-dimethyl-19-[5-[(4-methylpiperazin-1-yl)methyl]-2-furyl]-13-oxa-2,6,10,11,17,18,22,25-octazapentacyclo[15.5.2.13,7.08,12.020,24]pentacosa-1(22),3,5,7(25),8(12),9,18,20,23-nonaene]	< 10 nM	10 to 100 nM	< 10 nM	< 10 nM	100 to 1000 nM	10 to 100 nM	< 10 nM
Cc1cc(-c2nn3c4cc(ncc24)Nc2ccnc(n2)-c2cnn(C)c2OCC[C@@H]3C)oc1CN(C)C [(168)]	< 10 nM	< 10 nM	< 10 nM	< 10 nM	100 to 1000 nM	< 10 nM	< 10 nM
C[C@H]1CCOc2c(cnn2C)-c2nccc(n2)Nc2cc3c(cn2)c(-c2cccc(CCN4CCOCC4)c2)nn31 [(163)]	10 to 100 nM	< 10 nM	< 10 nM	< 10 nM	100 to 1000 nM	10 to 100 nM	< 10 nM
CC1CCOc2c(cnn2C)-c2nccc(n2)Nc2cc3c(cn2)c(-c2cc(CN4CCN(C)CC4)cn2C)nn31 (centres unmarked) [(83)]	10 to 100 nM	10 to 100 nM	< 10 nM	< 10 nM	10 to 100 nM	10 to 100 nM	10 to 100 nM
C[C@H]1CCOc2c(cnn2C)-c2nccc(n2)Nc2cc3c(cn2)c(-c2nn(C)cc2CCN(C)C)nn31 [(155)]	10 to 100 nM	10 to 100 nM	< 10 nM	< 10 nM	≥ 1000 nM	10 to 100 nM	< 10 nM
C[C@H]1CCOc2c(cnn2C)-c2nccc(n2)Nc2cc3c(cn2)c(N2CC[C@H](N(C)CCF)C2)nn31 [(170)]	10 to 100 nM	< 10 nM	< 10 nM	< 10 nM	100 to 1000 nM	10 to 100 nM	< 10 nM
C[C@H]1CCOc2c(cnn2C)-c2nccc(n2)Nc2cc3c(cn2)c(-c2cnn(CCN(C)C)c2)nn31 [(102)]	10 to 100 nM	10 to 100 nM	< 10 nM	< 10 nM	100 to 1000 nM	10 to 100 nM	< 10 nM
C[C@H]1CCOc2c(cnn2C)-c2nccc(n2)Nc2cc3c(cn2)c(-c2cccc(CN4CCN(C)CC4)c2)nn31 [(98)]	10 to 100 nM	10 to 100 nM	< 10 nM	< 10 nM	100 to 1000 nM	10 to 100 nM	< 10 nM
CCN(CC)CCN(C)c1cc(F)cc(-c2nn3c4cc(ncc24)Nc2ccnc(n2)-c2cnn(C)c2OCC[C@@H]3C)c1 [(132)]	10 to 100 nM	10 to 100 nM	< 10 nM	< 10 nM	100 to 1000 nM	10 to 100 nM	10 to 100 nM
C[C@H]1CCOc2c(cnn2C)-c2nccc(n2)Nc2cc3c(cn2)c(-c2ccc(CN4CCN(C)CC4)n2C)nn31 [(101), (16S)-11,16-dimethyl-19-[1-methyl-5-[(4-methylpiperazin-1-yl)methyl]pyrrol-2-yl]-13-oxa-2,6,10,11,17,18,22,25-octazapentacyclo[15.5.2.13,7.08,12.020,24]pentacosa-1(22),3,5,7(25),8(12),9,18,20,23-nonaene]	< 10 nM	< 10 nM	< 10 nM	< 10 nM	100 to 1000 nM	< 10 nM	< 10 nM
C[C@H]1CCOc2c(cnn2C)-c2nccc(n2)Nc2cc3c(cn2)c(-c2cc(F)cc(OCCN(C)C)c2)nn31 [(129)]	10 to 100 nM	10 to 100 nM	< 10 nM	< 10 nM	100 to 1000 nM	10 to 100 nM	10 to 100 nM
CC(C)n1cc(-c2nn3c4cc(ncc24)Nc2ccnc(n2)-c2cnn(C)c2OCC[C@@H]3C)cc1CN1CCOCC1 [(151)]	10 to 100 nM	< 10 nM	< 10 nM	< 10 nM	100 to 1000 nM	< 10 nM	< 10 nM
CC1CCCOc2c(cnn2C)-c2nccc(n2)Nc2cc3c(cn2)c(-c2cc(CN4CCN(C)CC4)nn2C)nn31 (centres unmarked) [(84)]	100 to 1000 nM	10 to 100 nM	< 10 nM	< 10 nM	100 to 1000 nM	10 to 100 nM	10 to 100 nM
C[C@H]1CCOc2c(cnn2C)-c2nccc(n2)Nc2cc3c(cn2)c(-c2cn(C)cn2)nn31 [(114)]	10 to 100 nM	10 to 100 nM	< 10 nM	< 10 nM	100 to 1000 nM	10 to 100 nM	10 to 100 nM
C[C@H]1CCOc2c(cnn2C)-c2nccc(n2)Nc2cc3c(cn2)c(-c2ccc(CN4CCN(C5COC5)CC4)n2C)nn31 [(124)]	< 10 nM	< 10 nM	< 10 nM	< 10 nM	100 to 1000 nM	< 10 nM	< 10 nM
C[C@H]1CCOc2c(cnn2C)-c2nccc(n2)Nc2cc3c(cn2)c(-c2ccc(CN4CC[C@H](N(C)C)C4)n2C)nn31 [(187)]	< 10 nM	< 10 nM	< 10 nM	< 10 nM	100 to 1000 nM	< 10 nM	< 10 nM
CCC1CCOc2c(cnn2C)-c2nccc(n2)Nc2cc3c(cn2)c(N2CCC2)nn31 (centres unmarked) [(5)]	10 to 100 nM	10 to 100 nM	< 10 nM	< 10 nM	≥ 1000 nM	10 to 100 nM	10 to 100 nM
C[C@H]1CCOc2c(cnn2C)-c2nccc(n2)Nc2cc3c(cn2)c(-c2cccc(OCCN4CCOCC4)c2)nn31 [(145), (16S)-11,16-dimethyl-19-[3-(2-morpholinoethoxy)phenyl]-13-oxa-2,6,10,11,17,18,22,25-octazapentacyclo[15.5.2.1^3,7.0^8,12.0^20,24]pentacosa-1(22),3,5,7(25),8(12),9,18,20,23-nonaene]	10 to 100 nM	< 10 nM	< 10 nM	< 10 nM	100 to 1000 nM	< 10 nM	< 10 nM
C[C@H]1CCOc2c(cnn2C)-c2nccc(n2)Nc2cc3c(cn2)c(-c2ccc(CN(C)CCCF)n2C)nn31 [(192)]	< 10 nM	< 10 nM	< 10 nM	< 10 nM	100 to 1000 nM	< 10 nM	< 10 nM
Cn1ncc2c1OCCCn1nc(N3CCCC3CO)c3cnc(cc31)Nc1ccnc-2n1 (centres unmarked) [(62)]	100 to 1000 nM	100 to 1000 nM	< 10 nM	< 10 nM	100 to 1000 nM	100 to 1000 nM	100 to 1000 nM
C[C@H]1CCOc2c(cnn2C)-c2nccc(n2)Nc2cc3c(cn2)c(N2CC[C@@H](O)C2)nn31 [(112)]	10 to 100 nM	< 10 nM	< 10 nM	< 10 nM	100 to 1000 nM	< 10 nM	< 10 nM
C[C@H]1CCOc2c(cnn2C)-c2nccc(n2)Nc2cc3c(cn2)c(-c2ccncc2)nn31 [(100)]	10 to 100 nM	10 to 100 nM	< 10 nM	< 10 nM	100 to 1000 nM	10 to 100 nM	10 to 100 nM
C[C@H]1CCOc2c(cnn2C)-c2nccc(n2)Nc2cc3c(cn2)c(-c2ncc(CN4CCN(C)CC4)s2)nn31 [(107), (16S)-11,16-dimethyl-19-[5-[(4-methylpiperazin-1-yl)methyl]thiazol-2-yl]-13-oxa-2,6,10,11,17,18,22,25-octazapentacyclo[15.5.2.13,7.08,12.020,24]pentacosa-1(22),3,5,7(25),8(12),9,18,20,23-nonaene]	< 10 nM	< 10 nM	< 10 nM	< 10 nM	100 to 1000 nM	< 10 nM	< 10 nM
C[C@H]1CCOc2c(cnn2C)-c2nccc(n2)Nc2cc3c(cn2)c(-c2ccc(CN4CCN(C5CC5)CC4)n2C)nn31 [(123)]	< 10 nM	< 10 nM	< 10 nM	< 10 nM	100 to 1000 nM	< 10 nM	< 10 nM
C[C@H]1CCOc2c(cnn2C)-c2nccc(n2)Nc2cc3c(cn2)c(-c2cccc(N4CCC(N5CCOCC5)CC4)c2)nn31 [(160)]	10 to 100 nM	< 10 nM	< 10 nM	< 10 nM	100 to 1000 nM	< 10 nM	< 10 nM
CC1CCOc2c(cnn2C)-c2nccc(n2)Nc2cc3c(cn2)c(N2CC(C(=O)N(C)C)C2)nn31 (centres unmarked) [(16)]	10 to 100 nM	10 to 100 nM	< 10 nM	< 10 nM	100 to 1000 nM	10 to 100 nM	10 to 100 nM
